Measured values published in ChEMBL document CHEMBL1201862, “PubChem BioAssay data set” (2004).
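Grown in 96-well plates, cells were treated for 48 hours with each compound at five concentrations. Insufficient inhibition: endpoint recorded as highest concentration tested. The concentration for 50% growth inhibition is given as GI50.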 Activity calls are given as the source filed them. Rule as the data show it: active = GI50 up to about 1.1 µM and inactive = higher.

Key:
Assay in all cases: NCI anticancer screen, dose series, 48 h
[1] = test system: KM12
[2] = test system: RPMI-8226
[3] = test system: IGROV-1
[4] = test system: SK-MEL-5
[5] = test system: A549
[6] = test system: CAKI-1
[7] = test system: M14
[8] = test system: M19-MEL
[9] = test system: SN12C
[10] = test system: DLD-1
[11] = test system: EKVX
[12] = test system: DMS-273
[13] = test system: OVCAR-3
[14] = test system: ACHN
[15] = test system: HOP-92
[16] = test system: HCC 2998

Measured: GI50

COc1ccc(C(=O)Nc2ccccc2)cc1[N+](=O)[O-]
inactive: [1] 89.7 µM | [2] > 100 µM | [3] > 100 µM | [4] 31.5 µM | [5] > 100 µM | [6] > 100 µM | [7] > 100 µM | [8] > 100 µM | [9] > 100 µM | [10] > 100 µM | [11] 46.6 µM | [12] > 100 µM | [13] 58.9 µM

Cc1cc(O)cc2c1O[C@@]1(C)CCC3[C@@]4(C)CC[C@H](O)C(C)(C)C4CC[C@@]3(C)[C@H]1C2 (stereo not given in full)
inactive: [1] 4.31 µM | [2] 2.18 µM | [3] 13.5 µM | [4] 5.61 µM | [5] 5.15 µM | [6] 6.81 µM | [14] 5.24 µM | [7] 11.3 µM | [8] 11 µM | [9] 11.6 µM | [10] 4.06 µM | [11] 12.6 µM | [12] 4.05 µM | [15] 5.09 µM | [13] 6.31 µM

CC(=O)Nc1ccc(-c2nnc(SCC(=O)Nc3cccc(Cl)c3)o2)cc1
inactive: [1] 16 µM | [2] 15 µM | [3] 8.97 µM | [4] 13.9 µM | [5] 18.7 µM | [6] 19.1 µM | [14] 15.2 µM | [7] 11.8 µM | [8] 17.3 µM | [9] 16 µM | [10] 14.3 µM | [11] 25.3 µM | [16] 18.6 µM | [12] 17.9 µM | [13] 7.11 µM

CC(NS(=O)(=O)c1ccc([N+](=O)[O-])cc1)C(=O)O (stereo not given)
inactive: [1] > 100 µM | [2] > 100 µM | [3] > 100 µM | [4] > 100 µM | [5] > 100 µM | [6] > 100 µM | [14] > 100 µM | [7] > 100 µM | [9] > 100 µM | [10] > 100 µM | [11] > 100 µM | [16] > 100 µM | [12] > 100 µM | [15] > 100 µM | [13] > 100 µM

COC(=O)CC1C(=O)OCc2c1cc1n(c2=O)Cc2c-1nc1ccccc1c2OC (stereo not given)
inactive: [2] > 100 µM | [3] > 100 µM | [4] 61.1 µM | [5] 59.8 µM | [6] 4.51 µM | [14] 23.6 µM | [7] 18 µM | [8] 69.7 µM | [9] 41.4 µM | [11] > 100 µM | [16] > 100 µM | [12] 12.7 µM | [15] 20.7 µM

CN(C)C(=S)/N=c1\ss/c(=N\C(=S)N(C)C)n1Cc1ccco1
inactive: [1] > 100 µM | [2] > 100 µM | [3] > 100 µM | [4] > 100 µM | [5] > 100 µM | [6] > 100 µM | [14] > 100 µM | [7] > 100 µM | [8] > 100 µM | [9] > 100 µM | [10] > 100 µM | [16] > 100 µM | [12] > 100 µM

N#CSCc1nc2ccc(Cl)cc2c(-c2ccccc2)[n+]1[O-]
inactive: [1] 22 µM | [2] 25.3 µM | [3] > 10 µM | [5] 33.8 µM | [6] 25.8 µM | [14] 16.9 µM | [7] 21.9 µM | [8] 31.8 µM | [9] 20 µM | [11] 23.2 µM | [16] 15.6 µM | [15] 16 µM | [13] 26.8 µM

CCOC(=O)C1=C(C)N(NC(N)=O)C2(N)N(NC(N)=O)C(C)=C(C(=O)OCC)C12C#N (stereo not given)
inactive: [1] > 100 µM | [2] > 100 µM | [3] > 100 µM | [4] > 100 µM | [5] > 100 µM | [6] > 100 µM | [14] > 100 µM | [7] > 100 µM | [8] > 100 µM | [9] > 100 µM | [10] > 100 µM | [11] > 100 µM | [16] > 100 µM | [12] > 100 µM | [13] > 100 µM

c1ccc2c(c1)N=C(c1cccc3ccccc13)CC(c1cccc3ccccc13)S2 (stereo not given)
inactive: [1] 2.91 µM | [2] 1.9 µM | [3] 5.68 µM | [4] 8.95 µM | [5] 9.12 µM | [6] 4.43 µM | [14] 10.2 µM | [7] 13.2 µM | [8] 5.53 µM | [9] 4.79 µM | [10] 3.6 µM | [11] 14 µM | [16] 4.21 µM | [12] 4.46 µM | [13] 2.77 µM

Cc1ccc(/C=C/C(=O)c2cccc3ccccc23)cc1
inactive: [1] 13.2 µM | [2] 2.49 µM | [3] > 10 µM | [4] > 10 µM | [5] 16.7 µM | [6] 16.4 µM | [14] 16.9 µM | [7] 19.3 µM | [8] 21.2 µM | [9] 14.3 µM | [10] > 10 µM | [11] 17.8 µM | [16] 22.9 µM | [12] 19 µM | [13] 17.5 µM

CCCCCC(=O)C(C)C1=Nc2nnc(CCCCCCCc3nnc4n3C(=O)C(C(C)C(=O)CCCCC)=N4)n2C1=O (stereo not given)
inactive: [1] > 100 µM | [2] > 100 µM | [3] > 100 µM | [4] > 100 µM | [5] > 100 µM | [6] > 100 µM | [14] > 100 µM | [7] > 100 µM | [8] > 100 µM | [9] > 100 µM | [10] > 100 µM | [11] > 100 µM | [16] > 100 µM | [13] > 100 µM

CCOC(=O)c1[nH]c2c(OC)n[n+]([O-])cc2c1[N+](=O)[O-]
inactive: [1] 15 µM | [2] 18.1 µM | [3] 54.8 µM | [5] 88.5 µM | [14] 17.3 µM | [7] 19.9 µM | [8] 24.8 µM | [9] 20.4 µM | [10] 17.2 µM | [11] 21.3 µM | [16] 10 µM | [13] 20.6 µM

Cc1c2c(cc[n+]1C)O[B-](c1ccccc1)(c1ccccc1)O2
inactive: [1] 59.8 µM | [2] 40.2 µM | [3] 90.6 µM | [4] 83.4 µM | [5] 84.5 µM | [6] 13.5 µM | [14] 35.9 µM | [7] 41.5 µM | [8] 49.1 µM | [9] 51.8 µM | [10] 60 µM | [11] 26.5 µM | [16] 27.8 µM | [12] 36.5 µM | [13] 43.7 µM

CCCN(CCC)C(=O)c1c([N+](=O)[O-])cc(C(F)(F)F)cc1[N+](=O)[O-]
inactive: [1] 46.1 µM | [2] 47.6 µM | [3] 58.2 µM | [5] 32.5 µM | [6] 60.7 µM | [14] 65.9 µM | [7] 22.5 µM | [8] 13.7 µM | [9] 40.9 µM | [11] 52.5 µM | [12] 35.4 µM | [15] 34.5 µM | [13] 10.7 µM

CCc1cccc(NC(=O)c2cc(/C=C/c3ccccc3)nc(S)n2)c1
inactive: [1] > 100 µM | [2] > 100 µM | [3] > 100 µM | [4] > 100 µM | [5] > 100 µM | [14] > 100 µM | [7] > 100 µM | [8] > 100 µM | [9] > 100 µM | [11] > 100 µM | [16] > 100 µM | [12] > 100 µM | [15] > 100 µM | [13] > 100 µM

O=C1[C@@H]2C(c3cccc([N+](=O)[O-])c3)=NO[C@@H]2C(=O)N1c1ccc(Cc2ccc(N3C(=O)[C@H]4C(c5cccc([N+](=O)[O-])c5)=NO[C@H]4C3=O)cc2)cc1
inactive: [1] > 10 µM | [2] > 100 µM | [3] > 100 µM | [6] > 100 µM | [14] > 100 µM | [7] > 100 µM | [8] > 100 µM | [9] > 100 µM | [10] > 100 µM | [12] > 100 µM | [15] > 100 µM | [13] > 100 µM

Cc1ccc(S(=O)(=O)N/N=C2\CCCCC23CCC(=O)NC3)cc1 (stereo not given)
inactive: [1] > 100 µM | [2] > 100 µM | [3] > 100 µM | [4] > 100 µM | [5] > 100 µM | [6] > 100 µM | [14] > 100 µM | [7] > 100 µM | [8] > 100 µM | [9] > 100 µM | [10] > 100 µM | [16] > 100 µM | [12] > 100 µM | [13] > 100 µM

C[C@H]1C(=O)CC[C@]2(C)CCC(C(C)(C)O)CC12O (stereo not given in full)
inactive: [1] > 100 µM | [2] > 100 µM | [3] > 100 µM | [4] > 100 µM | [5] > 100 µM | [6] > 100 µM | [14] > 100 µM | [7] > 100 µM | [9] > 100 µM | [10] > 100 µM | [11] > 100 µM | [16] > 100 µM | [12] > 100 µM | [15] > 100 µM | [13] > 100 µM

COc1ccc(C2=NC(CO)[C@H](c3ccccc3)O2)cc1OC (stereo not given in full)
inactive: [1] > 100 µM | [3] > 100 µM | [4] > 100 µM | [5] > 100 µM | [6] > 100 µM | [14] > 100 µM | [7] > 100 µM | [8] > 100 µM | [9] > 100 µM | [10] 78 µM | [16] > 100 µM | [12] > 100 µM | [15] > 100 µM | [13] > 100 µM
